In patent US20130344140A1, “NOVEL PHARMACEUTICAL COMBINATIONS AND METHODS FOR TREATING CANCER” (Agency for Science, Technology and Research, priority 2011, published 2013):

Assays:
[1] = system: A375, U2OS, A549, HCT116 p53+/+, HCT116 p53−/−, MDA-MB-486 and H1299 cells; test: Cell cycle distribution (propidium iodide flow cytometry) in a panel of tumor-derived cell lines after VX-680; type: cell-based; conditions: 200 nM VX-680; harvested at 24, 48 and 72 h; p53 wild-type, mutant and deleted lines
Protocol: (a) p53-positive cells (A375, U2OS, A549 and HCT116 p53+/+) and (b) p53-compromised cells (HCT116 p53−/−, […] and H1299) were treated with 200 nM VX-680 and harvested at the indicated time points. Analysis of cell cycle distribution using propidium iodide staining was performed using flow cytometry. Representative DNA profiles are shown. DNA content is indicated. No DNA profile was shown for cells that are 100% apoptotic.
p53 has been implicated in a postmitotic G1 checkpoint in response to various mitotic inhibitors. We examined whether this checkpoint is induced after aurora kinase inhibition by VX-680 and whether tetraploidy is suppressed by wild-type p53 functions. Using a panel of commonly used tumor-derived cell lines expressing either wild-type p53, mutant p53 or a deletion at the p53 gene locus (Table 1), we tested the correlation of p53 gene status to VX-680-induced endoreduplication. These cell lines were treated with VX-680, and harvested for cell cycle analysis at 24, 48 and 72 h.

[2] = system: A549 cells; test: Time course of cell cycle distribution of A549 cells incubated with VX-680; type: cell-based; conditions: A549, 200 nM VX-680, after 48 h
Protocol: After 48 h, more than 35% of cells were arrested in tetraploid G2/M (8N) (FIG. 2a). […] Together, the results confirmed that the 8N cells were arrested predominantly in G2 and VX-680 inhibited mitosis in part through a G2 checkpoint.

[3] = system: A549 cells; test: Mitotic index of A549 cells exposed to VX-680; type: cell-based; conditions: A549, VX-680 200 nM
Protocol: (B) is a graph showing the Mitotic index of A549 cells exposed to VX-680. A549 cells were incubated with VX-680 (200 nM) and the mitotic cells were counted and expressed as a percentage of total cells count. To aid visualization of the condensed chromosomes, H2B-GFP was expressed in A549. Each data point represents the mean±SD (n=3).

[4] = system: cyclins A2 and B1 mRNAs in wild-type HCT116 cells; test: qRT-PCR of transcript levels in HCT116 cells treated with VX-680; type: cell-based; conditions: VX-680-treated wild-type HCT116 (not in p53−/− or p21−/− cells)
Protocol: It is noteworthy that cyclins A2 and B1 levels remained high in p53−/− and p21−/− cells even after cells were incubated with VX-680 for 48 h, in contrast to that observed in the wild-type cells.
Total RNA was isolated using the RNeasy kit (Qiagen, Valencia, Calif., USA). The RNA was quantified using spectrophotometric analysis and used for quantitative real-time PCR. The primers used for each target analyzed are available on request. The RNA Master Power SYBR Green Mix (Roche) was used for quantification of mRNA levels.

[5] = system: HCT116 p53−/− cells; test: Cell cycle analysis of HCT116 p53−/− cells (nutlin-3, VX-680); type: cell-based; conditions: 200 nM VX-680, later time points (40 and 48 h), compared with p53+/+
Protocol: (a) is a comparison of the DNA profiles of P53+/+ and p53−/− cells after treatment with VX-680. HCT116 p53+/+ and p53−/− cells were incubated with 200 nM VX-680 and cells were harvested at the indicated time points for analysis of cell cycle distribution.
(b) is a comparison of the DNA profiles of p53+/+ and p53−/− cells with pre-treatment of Nutlin before incubation with VX-680.

[6] = system: A549 cells; test: Colony survival assay, A549; type: cell-based; conditions: A549, VX-680 treatment alone, 48 h
Protocol: Colonies were counted 2 weeks after recovery in drug-free media. Cells were fixed with glutaraldehyde and stained with crystal violet. Plates are scanned and colonies were counted with an automated image analyzer. Three independent experiments were performed for each cell line.
Each data point represents the mean±S.D.
A total of 1000 cells were plated on each 10 cm plate and allowed to adhere overnight. […] After 48 h, cells were washed and recovered in fresh media for 12 days. Cells were then fixed in 6% glutaraldehyde (Sigma) and stained with crystal violet. Colonies were counted using GelCount™ (Oxford Optronix, Oxford, England). Each condition was carried out in triplicate.

[7] = system: A549 cells transfected with p53-specific siRNA; test: Cell cycle analysis of A549 cells transfected with p53 siRNA and exposed to VX-680; type: cell-based; conditions: A549 with p53 siRNA knockdown, exposed to VX-680
Protocol: (B) Extent of endoreduplication is exacerbated in cells with compromised p53 functions. A549 cells transfected with p53 siRNA (Dharmacon pool) were incubated with VX-680 (200 nM) for the indicated time periods after transfection. […] DNA-dependent cell cycle analysis was performed using flow cytometry.
p53 siRNA oligo 1 (p53si) 5′-[…] GCGUCUU-3′ (SEQ ID NO: 9), cyclin A2 siRNA 5′-[…]-3′ (SEQ ID NO: 10) and cyclin B1 siRNA 5′-[…]-3′ were from Dharmacon (Lafayette, Colo., USA) (SEQ ID NO:11). Cells were plated in six-well dishes overnight in antibiotic-free media. Cells were incubated with Optimen (GIBCO) for an hour before transfection using Lipofectamine 2000 (Invitrogen) and siRNA (30 nM) according to the manufacturer's recommendation. Cells were either harvested at 48 h after transfection or incubated with VX-680 for another 48 h before analysis.

[8] = system: A375 and HCT116 p53+/+; test: Annexin V apoptosis assay, p53-positive cell lines; type: cell-based; conditions: various concentrations of VX-680
Protocol: (§1) Cells were then harvested and stained for annexin V to detect apoptotic cells.
(§2) For analysis of apoptosis, cells were harvested without fixation. Apoptosis was evaluated using the annexin V (fluorescein isothiocyanate (FITC))-propidium iodide binding assay (Roche, Indianapolis, Ind., USA). The extent of apoptosis was quantified as a percentage of annexin V-positive cells over the total cell population. Flow cytometric analysis was performed on a BD LSR II System (BD Biosciences, Stockholm, Sweden). Data were analyzed using FlowJo software and ModFit LT (Verity Software House, Topsham, Me., USA).

[9] = system: MDA-MB 468 and HCT116 p53−/−; test: Annexin V apoptosis assay, p53-compromised cell lines; type: cell-based; conditions: various concentrations of VX-680; MDA-MB 468 and HCT116 p53−/−
Protocol: as §1, §2

[10] = system: A549 cells; test: Micronuclei formation and γH2AX staining (immunofluorescence microscopy) in A549 cells; type: cell-based
Protocol: Cells were fixed and stained for γH2AX (green) as described in Materials and Methods in the Examples. Nuclei were counterstained with DAPI blue. Visualization of nuclei and γH2AX positive foci was done by fluorescence microscopy.
Indirect immunofluorescence was carried out as described previously.^14 g-H2AX (Novus Biologicals, Littleton, Colo., USA, NB 100-383) and anti-rabbit Alexa 488-coupled secondary antibody (Molecular Probes, Carlsbad, Calif., USA) were used. Nuclei were counterstained with Hoechst 33342 (Molecular Probes). Immunofluorescence was visualized using Axiolmager Z1 (Zeiss, Gottingen, Germany).

[11] = system: human keratinocytes; conditions: HEK cells treated with VX-680
Protocol: Primary human keratinocytes were purchased from Invitrogen and cultured in defined keratinocyte serum-free media (Invitrogen). All cell lines were cultured in a CO2 incubator (5% CO2 and 21% O2) at 37° C.
For analysis of cell cycle distribution, cells were harvested and fixed in 70% ethanol/PBS solution. Cells were stained in propidium-iodide containing solution (25 μg/ml propidium iodide supplemented with 1 mg/ml RNase A, in PBS (pH 7.8); Sigma Chemical, St Louis, Mo., USA) for 15 min at room temperature.

## Cc1cc(Nc2cc(N3CCN(C)CC3)nc(Sc3ccc(NC(=O)C4CC4)cc3)n2)[nH]n1 [VX-680, cyclopropane carboxylic acid of {4-[4-(4-methyl-piperazin-1-yl)-6-(5-methyl-2H-pyrazol-3-ylamino)-pyrimidin-2-ylsulphanyl]-phenyl}-amide]
[1]
  endoreduplication: all tumor cell lines undergo endoreduplication
[2]
  cells arrested in tetraploid G2/M (8N): more than 35%
[3]; after treatment
  time at which the mitotic index peaked: 16 h
[3]; at 48 h
  mitotic index: 2%
[4]
  cyclins A2 and B1 mRNAs: greatly reduced
[5]
  endoreduplication: Increased endoreduplication
[6]
  number of colonies: drastically reduced
[7]
  cells with 16n DNA content: > 15%
[8]
  apoptosis (annexin V): underwent apoptosis
[9]
  apoptosis (annexin V): underwent apoptosis
[10]; A549, VX-680 48 h
  cells containing at least 1 micronucleus per nucleus: More than 70%
[10]; A549, VX-680-treated
  γH2AX staining in the micronuclei: increased
[11]
  tetraploidy formation: significant tetraploid G2/M population
